Assay results as given in article PMC6024615, “Effect of Biliary Drainage on the Toxicity and Toxicokinetics of Amanita exitialis in Beagles” (Toxins, 2018).
Like-named read-outs stand apart in the source and are kept apart here. *1 amine or outer side, *2 acyl side, *3 side chain or, on linkers, in order; H or OH if unused. Where a SMILES comes first, the peptide text is derived from it. Bridges are numbered along the chain shown (N, C = ends). [ ]: non-standard residue; d: D form. Trp(2-yl) = O=C([C@H](Cc1c([*:3])[nH]c2ccccc12)N[*:1])[*:2]; Leu(4R-OH,5-OH) = C[C@](O)(CO)C[C@H](N)C(=O)O; dAsp(3S-OH) = N[C@@H](C(=O)O)[C@H](O)C(=O)O; cisHyp = O=C(O)[C@@H]1C[C@H](O)CN1

Experiments:
[1] = cited from earlier work
Experimental: The difference in detectable time in the urine can be explained by the low level of internal exposure (amatoxins in the blood). […] The daily amounts of peptide toxins excreted in urine in beagles without biliary drainage(mg). Time after α-Amanitin β-Amanitin Phallacidin ingestion 20 mg/kg 60 mg/kg 20 mg/kg 60 mg/kg 20 mg/kg 60 mg/kg group group group group group group 0-1d 0.0379 0.0593 0.0156 0.0251 0.0035 0.0088 (97.9%) (92.8%) (99.9%) (94.7%) (94.2%) (76%) 1-2d 0.0388 0.0618 0.01567 0.0255 0.0037 0.0110 (99.995%) (97.5%) (100%) (96.2%) (100%) (93%) 2-3d 0.0002 0.0626 0 0.0260 0 0.0115 (100%) (99.4%) (100%) (98.2%) (100%) (97.3%) 3-4d 0 0.063 ...

[2] = Peptide toxins in the bile of beagles with biliary drainage; type: in vivo, beagle dogs; details: for Accumulated amounts excreted in bile / percentage of total bile excretion, Accumulated amounts: 0–4 days
Experimental: The study was approved by National Institute of Occupational Health and Poison Control review board for animal experiments. Twenty-four male beagles (age, 8–10 months; weight, 10 ± 1 kg) were obtained from Beijing Institute of Xieerxin Biology Resource (Beijing, China). They were randomly divided into four groups of six animals each: control, biliary drainage, and 20 and 60 mg/kg with biliary drainage groups. The biliary drainage operation was conducted in all groups barring the control group. The dogs were dressed in homemade underwear, coats, and Elizabeth circles for a week to ensure pre-experimental acclimatization (Figure S8a–c). After determining the baseline values for biochemical indicators, the dogs were fasted for 24 h but received water ad libitum. They were anesthetized by intravenous administration of pentobarbital sodium (3%, 1 mL/kg) during the surgery. A temperature of 38–39 °C was maintained with a warming mat. After skin preservation and sterilization, the abdominal cavity was opened through the central abdomen. The abdomen was explored and blunt dissection of the common bile duct was performed (Figure S8d). The common bile duct and its branches were ligated from the intestinal side. A 7.0-Fr drainage catheter (COOK, Bloomington, IN, USA) was percutaneously inserted into the gallbladder, and a medical drainage bag was connected to the drainage catheter coming out of the abdominal cavity. Each opened layer, including the peritoneum, abdominal wall muscle, and skin, was closed with suture. The operative incision was protected with sterile gauze and a bandage, and the dogs were dressed in homemade underwear, coats, and Elizabeth circles. The drainage bag was placed in the pocket of the coat (Figure S8e). After the anesthetic wore off, the dogs were placed in cages, and food and water were provided ad libitum. The operative incision was sterilized with iodophor twice a day until stitches were removed six days after surgery. The drainage bag was replaced every day. On the eighth day after surgery, the 20 and 60 mg/kg with biliary drainage groups were orally administered a lyophilized powder of Amanita exitialis in starch capsules. In control and bile drainage group, the beagle dogs were fed with empty capsules. Immediately after dosing, the animals were placed in their cages, and food and water were provided ad libitum. Dogs were sacrificed with an overdose of sodium pentobarbital at the end of the experiment. All procedures were performed according to the ethical standards of the National Institutes of Health Guide for Animal Welfare and approved by the Institutional Animal Care and Use Committee (EAWE-2017-005).
Peptide toxins in blood and urine samples were analyzed as described previously. Bile samples from Days 0–1, Days 1–2, Days 2–3, and Days 3–4 were collected and stored in medical drainage bags and the bile volume was recorded. Plasma and urine samples were stored at 2–8 °C until analysis for peptide toxins.
α-Amanitin, β-amanitin, γ-amanitin, and phallacidin were used as the standard reference materials. Aliquots (0.2 mL) of bile samples were transferred into 2-mL polypropylene centrifuge tubes in duplicates. Next, 1 mL of acetonitrile was added to each tube. After vortex-mixing for 1 min, each sample was sonicated for 30 min and centrifuged at 11,200× g for 10 min at 4 °C. The supernatants were loaded on solid-phase extraction columns (Oasis PRiME HLB, 60 mg, 3 cc). The columns were then washed with 3 mL of methanol/ultrapure water (v/v: 5/95). The eluent was evaporated in a stream of nitrogen at room temperature. The dry residue was dissolved in 0.2 mL of ultrapure water and analyzed by UPLC-ESI-MS/MS.
UPLC and MS/MS parameters were as described in our previous study. The limit of detection and limit of quantitation of each toxin in the bile were 0.03 mg/kg and 0.5 mg/kg, respectively.

[3] = 0–1 days, 20 mg/kg with biliary drainage group
[4] = 0–1 days, 60 mg/kg with biliary drainage group
[5] = 20 mg/kg with biliary drainage group
[6] = 1-2 d, 20 mg/kg with biliary drainage group
[7] = 1–2 days, 20 mg/kg with biliary drainage group
[8] = 1–2 days, 60 mg/kg with biliary drainage group
[9] = 2-3 d, 20 mg/kg with biliary drainage group
[10] = 2-3 d, 60 mg/kg with biliary drainage group
[11] = 2–3 days, 20 mg/kg with biliary drainage group
[12] = 2–3 days, 60 mg/kg with biliary drainage group
[13] = 3-4d, 20 mg/kg with biliary drainage group
[14] = 3-4d, 60 mg/kg with biliary drainage group
[15] = 3–4 days, 20 mg/kg with biliary drainage group
[16] = 3–4 days, 60 mg/kg with biliary drainage group

## CC(C)[C@@H]1NC(=O)[C@H](C[C@@](C)(O)CO)NC(=O)[C@@H]2Cc3c([nH]c4ccccc34)SC[C@H](NC(=O)[C@@H]([C@H](O)C(=O)O)NC1=O)C(=O)N1C[C@@H](O)C[C@H]1C(=O)N[C@@H](C)C(=O)N2 [phallacidin] (cyclo(A[Trp(2-yl)][Leu(4R-OH,5-OH)]V[dAsp(3S-OH)]C[cisHyp]); thioether 2-6)
[1]; 0-1d, 20 mg/kg group
  daily amount excreted in urine, without biliary drainage: 0.0035 mg
  percentage in parentheses, urine, without biliary drainage: 94.2%
[1]; 0-1d, 60 mg/kg group
  daily amount excreted in urine, without biliary drainage: 0.0088 mg
  percentage in parentheses, urine, without biliary drainage: 76%
[1]; 20 mg/kg group
  Accumulative amount excreted in urine, without biliary drainage: 0.0037 mg
  percentage in parentheses, Accumulative amount, urine, without biliary drainage: 100%
[1]; 60 mg/kg group
  percentage in parentheses, Accumulative amount, urine, without biliary drainage: 100%
[1]; 1-2d, 20 mg/kg group
  percentage in parentheses, urine, without biliary drainage: 100%
[1]; 1-2d, 60 mg/kg group
  daily amount excreted in urine, without biliary drainage: 0.0110 mg
  percentage in parentheses, urine, without biliary drainage: 93%
[1]; 2-3d, 20 mg/kg group
  daily amount excreted in urine, without biliary drainage: 0 mg
  percentage in parentheses, urine, without biliary drainage: 100%
[1]; 2-3d, 60 mg/kg group
  daily amount excreted in urine, without biliary drainage: 0.0115 mg
  percentage in parentheses, urine, without biliary drainage: 97.3%
[1]; 3-4d, 20 mg/kg group
  daily amount excreted in urine, without biliary drainage: 0 mg
  percentage in parentheses, urine, without biliary drainage: 100%
[1]; 3-4d, 60 mg/kg group
  daily amount excreted in urine, without biliary drainage: 0.0118 mg
  percentage in parentheses, urine, without biliary drainage: 100%
[2]; 0-1 d, 20 mg/kg with biliary drainage group
  detection rate of peptide toxins in bile: 83%
[2]; 0-1d, 20 mg/kg with biliary drainage group, mean ± SD
  toxin concentration in bile: 0 µg/L
[2]; 0-1 d, 60 mg/kg with biliary drainage group
  detection rate of peptide toxins in bile: 83%
[2]; [3]
  daily amount excreted in bile: 0.00005 mg
  percentage of total bile excretion excreted daily: 100%
[2]; [4]
  daily amount excreted in bile: 0.0002 mg
  percentage of total bile excretion excreted daily: 81.7%
[2]; [5]
  Accumulated amounts excreted in bile: 0.00005 mg
  percentage of total bile excretion, Accumulated amounts: 100%
[2]; 60 mg/kg with biliary drainage group
  percentage of total bile excretion, Accumulated amounts: 100%
[2]; 60 mg/kg with biliary drainage group, 60 mg/kg
  Accumulated amounts excreted in bile: 0.00024 mg
[2]; 20 mg/kg with biliary drainage group, mean ± SD
  ratio of peptide toxins in bile to excretion in urine and bile: less than 10%
[2]; 20 mg/kg with biliary drainage group, mean ± SD, listed as Phallacidin
  ratio of peptide toxins in bile to excretion in urine and bile: 4.8 ± 5.7%
[2]; 60 mg/kg with biliary drainage group, mean ± SD
  ratio of peptide toxins in bile to excretion in urine and bile: less than 20%
[2]; 60 mg/kg with biliary drainage group, mean ± SD, listed as Phallacidin
  ratio of peptide toxins in bile to excretion in urine and bile: 9.4 ± 6.4%
[2]; [6]
  detection rate of peptide toxins in bile: 0%
  toxin concentration in bile: 0 µg/L
[2]; 1-2 d, 60 mg/kg with biliary drainage group
  detection rate of peptide toxins in bile: 75%
[2]; [7]
  daily amount excreted in bile: 0(0%) mg
  percentage of total bile excretion excreted daily: 0(0%)
[2]; [8]
  daily amount excreted in bile: 0.00004 mg
  percentage of total bile excretion excreted daily: 18.3%
[2]; [9]
  detection rate of peptide toxins in bile: 0%
  toxin concentration in bile: 0 µg/L
[2]; [10]
  detection rate of peptide toxins in bile: 0%
  toxin concentration in bile: 0 µg/L
[2]; [11]
  daily amount excreted in bile: 0(0%) mg
  percentage of total bile excretion excreted daily: 0(0%)
[2]; [12]
  daily amount excreted in bile: 0(0%) mg
  percentage of total bile excretion excreted daily: 0(0%)
[2]; [13]
  detection rate of peptide toxins in bile: 0%
  toxin concentration in bile: 0 µg/L
[2]; [14]
  detection rate of peptide toxins in bile: 0%
  toxin concentration in bile: 0 µg/L
[2]; [15]
  daily amount excreted in bile: 0(0%) mg
  percentage of total bile excretion excreted daily: 0(0%)
[2]; [16]
  daily amount excreted in bile: 0(0%) mg
  percentage of total bile excretion excreted daily: 0(0%)
